Tested on: mRNA expressed from the genes (A) to (D) in rat liver
Experiment: Behavior of genes (mRNA expression level, oligo-DNA microarray) in rat liver after 28-day oral administration
Type: in vivo
Settings: rat liver, oral once daily 28 days
Protocol: A test solution was prepared by dissolving each of the carcinogens and the non-carcinogens shown in Tables 2 to 6 in the corresponding solvent shown in Tables 2 to 6. Each of the thus prepared test solutions and the solvents used for the preparation was administered by oral gavage to rats in each group. As the rats, male rats (F344 SPF rats) at 5 weeks of age obtained from Charles River Laboratories Japan, Inc. were used. The animals were divided into groups, each containing four individuals. The volume of the solvent administered to the vehicle control group was set to the same volume as that of the test solution administered to the carcinogen administration group or the non-carcinogen administration group. The administration of the test solution or the solvent was performed once daily for 28 days. Apiece was excised from the liver of each of the rats after a lapse of 28 days from the initiation of the administration, and the total RNA was extracted and purified.
The expression level of mRNA was compared between each of the chemical substance administration groups and the corresponding vehicle control group, and genes that satisfy the requirements described in (A) to (D) were selected, respectively.
The case where the expression level of mRNA in the carcinogen administration group or the non-carcinogen administration group is 1.5 times or more or 1/1.5 or less of the expression level of the corresponding mRNA expressed in the control group was determined to be significant. In this connection, the determination as to whether or not the change is significant was performed by taking into consideration the direction of increase or decrease in the expression level. In the case where the direction of increase or decrease is different as compared with the case where another carcinogen was administered, the change was determined to be not significant.

[1] = (C), Unigene Rn.120914, defined direction +

Compound: COC(N)=O [TS029, Methyl carbamate]
- Behavior of gene caused by administration of chemical substance, Gene No. 4846 ((A), Unigene Rn.144554, defined direction +): +
- Behavior of gene caused by administration of chemical substance, Gene No. 4218 ((A), Unigene Rn.167075, defined direction +, significant = 1.5 times or more or 1/1.5 or less of control): +
- Behavior of gene caused by administration of chemical substance, Gene No. 2026 ((A), Unigene Rn.167075, defined direction −): +
- Behavior of gene caused by administration of chemical substance, Gene No. 6182 ((A), Unigene Rn.5834, defined direction +): +
- Behavior of gene caused by administration of chemical substance, Gene No. 5600 ((A), Unigene Rn.9836, defined direction +): +
- Behavior of gene caused by administration of chemical substance, Gene No. 1494 ((B), Unigene Rn.1430, defined direction −): +
- Behavior of gene caused by administration of chemical substance, Gene No. 2045 ((B), Unigene Rn.19329, defined direction +): −
- Behavior of gene caused by administration of chemical substance, Gene No. 2203 ((B), Unigene Rn.21240, defined direction +): −
- Behavior of gene caused by administration of chemical substance, Gene No. 533 ((C), Unigene Rn.106184, defined direction +): +
- Behavior of gene caused by administration of chemical substance, Gene No. 725 ((C), Unigene Rn.108075, defined direction −): −
- Behavior of gene caused by administration of chemical substance, Gene No. 1163 ((C), Unigene Rn.11766, defined direction +): −
- Behavior of gene caused by administration of chemical substance, Gene No. 4973 ((C), Unigene Rn.118529, defined direction −): −
- Behavior of gene caused by administration of chemical substance, Gene No. 4095 ((C), Unigene Rn.119024, defined direction −): −
- Behavior of gene caused by administration of chemical substance, Gene No. 1334 [1]: −
- Behavior of gene caused by administration of chemical substance, Gene No. 6620 [1]: −
- Behavior of gene caused by administration of chemical substance, Gene No. 6303 ((C), Unigene Rn.123063, defined direction −): +
- Behavior of gene caused by administration of chemical substance, Gene No. 5878 ((C), Unigene Rn.143213, defined direction −): −
- Behavior of gene caused by administration of chemical substance, Gene No. 1131 ((C), Unigene Rn.144946, defined direction −): −
- Behavior of gene caused by administration of chemical substance, Gene No. 1562 ((C), Unigene Rn.14744, defined direction −): +
- Behavior of gene caused by administration of chemical substance, Gene No. 1741 ((C), Unigene Rn.1647, defined direction −): +
- Behavior of gene caused by administration of chemical substance, Gene No. 893 ((C), Unigene Rn.164817, defined direction +): −
- Behavior of gene caused by administration of chemical substance, Gene No. 6026 ((C), Unigene Rn.167685, defined direction −): −
- Behavior of gene caused by administration of chemical substance, Gene No. 154 ((C), Unigene Rn.185941, defined direction −): +
- Behavior of gene caused by administration of chemical substance, Gene No. 1993 ((C), Unigene Rn.18728, defined direction −): +
- Behavior of gene caused by administration of chemical substance, Gene No. 813 ((C), Unigene Rn.201760, defined direction +): −
- Behavior of gene caused by administration of chemical substance, Gene No. 2494 ((C), Unigene Rn.23969, defined direction +): −
- Behavior of gene caused by administration of chemical substance, Gene No. 2546 ((C), Unigene Rn.24561, defined direction −): −
- Behavior of gene caused by administration of chemical substance, Gene No. 3776 ((C), Unigene Rn.43232, defined direction −): +
- Behavior of gene caused by administration of chemical substance, Gene No. 3929 ((C), Unigene Rn.4620, defined direction +): −
- Behavior of gene caused by administration of chemical substance, Gene No. 1119 ((C), Unigene Rn.9757, defined direction +): −
- Behavior of gene caused by administration of chemical substance, Gene No. 6742 ((C), Unigene Rn.9779, defined direction +): −
- Behavior of gene caused by administration of chemical substance, Gene No. 5634 ((C), Unigene Rn.9862, defined direction −): −
- Behavior of gene caused by administration of chemical substance, Gene No. 5726 ((D), Unigene Rn.9939, defined direction −): −

— patent US20110039721A1, “METHOD FOR PREDICTION ABOUT CARCINOGENICITY OF SUBSTANCE IN RODENT” (Chemicals Evaluation and Research Institute, priority 2007, published 2011)
